Legend:
A1 receptors = molecular target: T1, A1 receptors (Rattus norvegicus, UniProt P25099); assay: Binding to adenosine A1 receptors: competitive displacement of [^3 H] PIA, rat brain membranes; settings: [^3 H] PIA 2.5 nM, n=3; for inhibition at 10 µM: 10^-5 M, read-out: % displacement of the labeled ligand, A1, 1E-5M; for inhibition at 0.1 µM: read-out: % displacement of the labeled ligand, A1, 1E-7M
T1 construct: the brain is quickly removed and washed in cold isotonic solution; from tissue; host or cells: rat brain hemispheres (membrane homogenate)
T1 sequence (P25099 1-326): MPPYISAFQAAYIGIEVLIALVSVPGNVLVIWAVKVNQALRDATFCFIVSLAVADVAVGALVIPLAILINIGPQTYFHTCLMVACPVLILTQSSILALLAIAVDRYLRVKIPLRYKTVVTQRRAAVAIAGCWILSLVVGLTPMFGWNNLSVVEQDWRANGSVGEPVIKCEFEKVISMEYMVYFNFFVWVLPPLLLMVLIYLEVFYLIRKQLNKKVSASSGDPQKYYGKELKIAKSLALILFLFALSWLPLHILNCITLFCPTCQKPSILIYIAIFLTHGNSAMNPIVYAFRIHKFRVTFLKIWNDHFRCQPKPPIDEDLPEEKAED
Experimental: (§1) The affinity of the products of the Examples for the rat central A1 and A2 adenosinergic receptors is determined by the competitive technique using a radioactive ligand specifically bound either to the A1 receptors ([^3 H] PIA) or to the A2 receptors ([^3 H] NECA).
After the animal has been sacrificed by decapitation, the brain is quickly removed and washed in cold isotonic solution. The two hemispheres are separated and weighed and each of them is introduced into a polyallomer tube containing 25 volumes of cold homogenization buffer. Homogenization is effected using an Ultra-Turrax for 30 seconds (3 times 10 seconds with 10-second intervals, 70% of the maximum speed). The ground material obtained is centrifuged at 1000 g (≈3000 rpm) for 10 minutes at 4° C.
The supernatant is centrifuged again at 48,000 g (≈20,000 rpm) for 20 minutes at 4° C.
When this step is complete, the residue is taken up with 4 volumes of homogenization buffer, resuspended using a Vortex and homogenized with the Ultra-Turrax. Adenosine deaminase is then added at a rate of 1 U/ml, i.e. 1 μl/ml of homogenate, using a 10 μl Hamilton syringe.
After this treatment, the homogenate is shaken for 30 minutes at room temperature and then centrifuged at […] (≈20,000 rpm) for 30 minutes at 4° C.
The residue obtained is resuspended in 10 volumes of homogenization buffer and passed through the Ultra-Turrax for 20 seconds (2 times 10 seconds with a 10-second interval, 70% of the maximum speed).
The homogenate prepared in this way is used for the competitive tests. It is kept at 4° C. if the studies take place the same day, or stored at -20° C. in the form of 10 ml aliquots.
After the homogenate has been thawed at room temperature, it is passed through a Potter homogenizer (6 manual to-and-fro movements, speed 6), diluted to 2/5 in incubation buffer and placed in a water bath thermostated at 4° C., with shaking, until the end of the experiment.
(§2) 50 μl of [^3 H] PIA at 100 nM, i.e. 2.5 nM in the final reaction medium allowing for the 1/40 dilution, and 50 μl of the product of the Example at the concentrations considered (10^-5 M and 10^-7 M) are introduced into the reaction tubes. The reaction is initiated by the addition of 1 ml of homogenate and 900 μl of incubation buffer. The procedure is identical for all the beta-blockers studied.
(§3) The tubes are shaken and incubated in a water bath at 20° C. for 30 minutes. When the incubation is complete, the contents of the tubes are filtered on Whatman GF/B paper. Each tube is washed twice with 2 ml of rinsing buffer and then the filters themselves are rinsed with 3 ml of this same buffer.
The filters are then transferred to counting flasks and 10 ml of liquid scintillator (Ready Solv HP/b, Beckman) are added.
After they have been shaken, the flasks are stored in a refrigerator overnight and the radioactivity is then determined in a liquid scintillation counter.
(§4) 3 tests are performed for each concentration studied. The non-specific binding of the [^3 H] PIA is assessed by measuring the amount of radioactivity retained on the filter in the presence of 10^-5 M phenylisopropyladenosine (PIA). The value of the non-specific binding is systematically subtracted from that of the tests.
(§5) The results are expressed for each product in the form of the percentage displacement (n=3) of the labeled radioligand at concentrations of 10^-5 M and 10^-7 M.

A2 receptors = molecular target: T2, A2 receptors (Rattus norvegicus, UniProt P30543); assay: Binding to adenosine A2 receptors: competitive displacement of [^3 H] NECA, rat striatum membranes; settings: [^3 H] NECA 4 nM, n=3; for inhibition at 10 µM: 10^-5 M, read-out: % displacement of the labeled ligand, A2, 1E-5M; for inhibition at 0.1 µM: read-out: % displacement of the labeled ligand, A2, 1E-7M
T2 construct: The two hemispheres are separated and the striatum is removed from each of them (Bruns et al., 1986); from tissue; host or cells: rat striatum (membrane homogenate)
T2 sequence (P30543 whole entry): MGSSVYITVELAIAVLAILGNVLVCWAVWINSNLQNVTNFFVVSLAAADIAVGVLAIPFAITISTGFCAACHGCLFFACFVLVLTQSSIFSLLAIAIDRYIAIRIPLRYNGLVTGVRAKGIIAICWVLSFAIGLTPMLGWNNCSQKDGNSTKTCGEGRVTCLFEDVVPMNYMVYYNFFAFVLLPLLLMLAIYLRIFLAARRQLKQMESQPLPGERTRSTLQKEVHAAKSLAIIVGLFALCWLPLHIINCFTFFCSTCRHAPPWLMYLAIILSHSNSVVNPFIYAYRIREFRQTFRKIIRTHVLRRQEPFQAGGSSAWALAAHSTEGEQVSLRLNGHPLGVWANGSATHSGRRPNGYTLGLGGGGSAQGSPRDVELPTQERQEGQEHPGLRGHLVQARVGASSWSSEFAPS
Experimental: as §1
After decapitation of the animal, the brain is quickly removed and washed in cold isotonic solution. The two hemispheres are separated and the striatum is removed from each of them (Bruns et al., 1986), weighed and introduced into a polyallomer tube containing 10 volumes of cold homogenization buffer. The tissue is homogenized with an Ultra-Turrax for 30 seconds (3 times 10 seconds with 10-second intervals, 70% of the maximum speed). The ground material is centrifuged at 50,000 g (≈20,500 rpm) for 10 minutes at 4° C.
The residue obtained is resuspended in 10 volumes of homogenization buffer using a Vortex and homogenized with the Ultra-Turrax (5 to 10 seconds, 70% of the maximum speed).
Adenosine deaminase is then added at a rate of 1 U/ml, i.e. 1 μl/ml of homogenate, using a 10 μl Hamilton syringe. The homogenate treated in this way is shaken at room temperature for 30 minutes.
When the incubation is complete, the homogenate is centrifuged at 50,000 g (≈20,500 rpm) for 10 minutes at 4° C.
The residue is taken up with 5 volumes of cold homogenization buffer and passed through the Ultra-Turrax (2 times 10 seconds with a 10-second interval, 70% of the maximum speed) and the homogenate prepared in this way is finally frozen at -70° C.
After the homogenate has been thawed at room temperature, 15 volumes of incubation buffer are added. The homogenate is shaken on a Vortex, passed through a Potter homogenizer (6 to-and-fro movements, speed 6), diluted to 1/10 in incubation buffer and finally placed in a water bath thermostated at 4° C., with shaking, until the end of the experiment.
as §2, with “NECA” for “PIA”, “160” for “100”, “4” for “2.5”, “similar” for “identical”, “compounds” for “beta-blockers”
as §3, with “25°” for “20°”, “60” for “30”, “buffer before being transferred to counting flasks.” for “buffer.”
10 ml of liquid scintillator (Ready Solv HP/b, Beckman) are added to all the flasks. These are shaken and stored in a refrigerator overnight. The radioactivity is determined in a liquid scintillation counter.
as §4, with “NECA” for “PIA”, “determined” for “assessed”, “5 μM N-ethylcarboxamidoadenosine (NECA).” for “10^-5 M phenylisopropyladenosine (PIA).”
as §5

[1] = tested on: twisting and stretching movements in mice; assay: Phenylbenzoquinone test (analgesic activity); assay type: in vivo; settings: Mus musculus, po, one hour before phenylbenzoquinone i.p., 5 minutes observation, read-out: Phenylbenzoquinone test 50% inhibitory dose
Experimental: The intraperitoneal injection of phenylbenzoquinone causes twisting and stretching movements in mice. Analgesics prevent or reduce this syndrome, which can be considered as the exteriorization of diffuse abdominal pain.
A 0.02% solution of phenylbenzoquinone in water is administered in a volume of 1 ml/100 g.
The products of the Examples are administered orally one hour before the injection of phenylbenzoquinone.
The stretching and twisting movements are counted for each mouse over an observation period of 5 minutes.

inhibition at 10 µM (A1 receptors)	inhibition at 0.1 µM (A1 receptors; 10^-7 M)	inhibition at 10 µM (A2 receptors)	inhibition at 0.1 µM (A2 receptors; 10^-7 M)	% displacement of the labeled ligand, A1, 1E-7M (A1 receptors; 10^-7 M, 0.1 µM)	% displacement of the labeled ligand, A2, 1E-7M (A2 receptors; 10^-7 M, 0.1 µM)	Structure (SMILES)	ED50 [1]
94%	15%	89%	53%			O=C(NC1CC1)[C@H]1O[C@@H](n2cnc3c(NCC4CC4(c4ccc(F)cc4)c4ccc(F)cc4)ncnc32)[C@H](O)[C@@H]1O (mixture of isomers) [Example 40, β-D-Ribofuranuronamido-N-cyclopropyl-1-deoxy-1-[6-[(±)-[[2-di(4-fluorophenyl)cyclopropyl]methyl]amino]-9H-purin-9-yl]]	0.5 mg/kg
98%	31%	100%	68%			CCNC(=O)[C@H]1O[C@@H](n2cnc3c(NCC4CC4(c4ccccc4)c4ccccc4)ncnc32)[C@H](O)[C@@H]1O (mixture of isomers) [Example 41, β-D-Ribofuranuronamido-N-ethyl-1-deoxy-1-[6-[(±)-[[2,2-diphenylcyclopropyl]methyl]amino]-9H-purin-9-yl]]	0.5 mg/kg
96%	20%	94%	59%			O=C(NC1CC1)[C@H]1O[C@@H](n2cnc3c(NCC4CC4(c4ccccc4)c4ccccc4)ncnc32)[C@H](O)[C@@H]1O (mixture of isomers) [Example 42, β-D-Ribofuranuronamido-N-cyclopropyl-1-deoxy-1-[6-[(±)-[[2,2-diphenylcyclopropyl]methyl]amino]-9H-purin-9-yl]]	0.9 mg/kg
93%	20%	79%	12%			O=C(NC1CC1)[C@H]1O[C@@H](n2cnc3c(NCC4CC45c4ccccc4CCc4ccccc45)ncnc32)[C@H](O)[C@@H]1O (mixture of isomers) [Example 45, β-D-Ribofuranuronamido-N-cyclopropyl-1-deoxy-1-[6-[(±)-2-[spiro[10',11'-dihydrocyclopropane-1,5'-[5H]-dibenzo[a,d]cycloheptene]methyl]amino]-9H-purin-9-yl]]	1.6 mg/kg
		92%	38%			O=C(NC1CC1)[C@H]1O[C@@H](n2cnc3c(NCC4CC45c4ccccc4-c4ccccc45)ncnc32)[C@H](O)[C@@H]1O (mixture of isomers) [Example 46, β-D-Ribofuranuronamido-N-cyclopropyl-1-deoxy-1-[6-[(±)-2-[spiro[cyclopropane-1,9'-[9H]-fluorene]methyl]amino]-9H-purin-9-yl]]	0.6 mg/kg
93%	7%	84%	17%			CC(C)NC(=O)[C@H]1O[C@@H](n2cnc3c(NCC4CC4(c4ccccc4)c4ccccc4)ncnc32)[C@H](O)[C@@H]1O (mixture of isomers) [Example 47, β-D-Ribofuranuronamido-N-isopropyl-1-deoxy-1-[6-[(±)-[[2,2-diphenylcyclopropyl]methyl]amino]-9H-purin-9-yl]]	2 mg/kg
93%	18%	95%	56%			OC[C@H]1O[C@@H](n2cnc3c(NCC4CC4(c4ccccc4)c4ccccc4)ncnc32)[C@H](O)[C@@H]1O (mixture of isomers) [Example 51, N^6-(±)-[1,1-Diphenylcyclopropan-2-yl]methyladenosine]	31 mg/kg
92%	18%	92%	28%			OC[C@H]1O[C@@H](n2cnc3c(NCC4CC4(c4ccccc4)c4cc(Cl)cc(Cl)c4)ncnc32)[C@H](O)[C@@H]1O (mixture of isomers) [Example 52, N^6-(±)-[1-(3,5-Dichlorophenyl)-1-phenylcyclopropan-2-yl]methyladenosine]	41 mg/kg
97%		96%		44%	73%	O=C(NC1CC1)[C@H]1O[C@@H](n2cnc3c(NCC4CC4(c4ccccc4)c4ccccc4)ncnc32)[C@H](O)[C@@H]1O (single isomer, unassigned) [Example 43, β-D-Ribofuranuronamido-N-cyclopropyl-1-deoxy-1-[6-[(+)-[[2,2-diphenylcyclopropyl]methyl]amino]-9H-purin-9-yl]]	1.2 mg/kg

Reference: patent US5219839A, “Adenosine derivatives, their methods of preparation and pharmaceutical compositions in which they are present” (Laboratories UPSA, priority 1992, dated 1993)
